Test results from ChEMBL document CHEMBL1201862, “PubChem BioAssay data set” (2004).
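Five concentrations, 48 hours, 96-well plates. GI50 = concentration required for 50% inhibition of growth.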 The source made the active and inactive calls. No stated cut-off is given here; in the data, active = GI50 up to about 1.1 µM and inactive = higher.

Columns and labels:
Assay in all cases: inhibition of tumour cell growth, NCI panel, 48 h
RXF 393 = test system: RXF 393
786-0 = test system: 786-0
EKVX = test system: EKVX
HOP-92 = test system: HOP-92
MDA-MB-231 = test system: MDA-MB-231
UO-31 = test system: UO-31
SR = test system: SR
OVCAR-8 = test system: OVCAR-8
ACHN = test system: ACHN
RPMI-8226 = test system: RPMI-8226
SF-295 = test system: SF-295
U-251 = test system: U-251
HCC 2998 = test system: HCC 2998
OVCAR-5 = test system: OVCAR-5
NCI-H23 = test system: NCI-H23
MOLT-4 = test system: MOLT-4
SK-MEL-5 = test system: SK-MEL-5
CCRF-CEM = test system: CCRF-CEM
COLO 205 = test system: COLO 205
NCI-H226 = test system: NCI-H226

Compound | GI50 (RXF 393) | GI50 (786-0) | GI50 (EKVX) | GI50 (HOP-92) | GI50 (MDA-MB-231) | GI50 (UO-31) | GI50 (SR) | GI50 (OVCAR-8) | GI50 (ACHN) | GI50 (RPMI-8226) | GI50 (SF-295) | GI50 (U-251) | GI50 (HCC 2998) | GI50 (OVCAR-5) | GI50 (NCI-H23) | GI50 (MOLT-4) | GI50 (SK-MEL-5) | GI50 (CCRF-CEM) | GI50 (COLO 205) | GI50 (NCI-H226)
O=C(O)CSc1ccc([N+](=O)[O-])cc1[N+](=O)[O-] | > 100 µM (inactive) | > 100 µM (inactive) | > 100 µM (inactive) | > 100 µM (inactive) | > 100 µM (inactive) | > 100 µM (inactive) | > 100 µM (inactive) | > 100 µM (inactive) | > 100 µM (inactive) | > 100 µM (inactive) | > 100 µM (inactive) | > 100 µM (inactive) | > 100 µM (inactive) | > 100 µM (inactive) | > 100 µM (inactive) |  |  |  |  | 
C[C@]1(O)CC[C@H]2[C@@H]3CCc4cc(O)ccc4[C@H]3CC[C@@]21C | 0.889 µM (active) | 6.38 µM (inactive) | 1.32 µM (inactive) | 6.95 µM (inactive) | 7.23 µM (inactive) | 8.32 µM (inactive) | 0.21 µM (active) | 7.48 µM (inactive) | 16.6 µM (inactive) | 0.687 µM (active) | 1.48 µM (inactive) | 4.03 µM (inactive) | 0.233 µM (active) | 8.02 µM (inactive) | 3.03 µM (inactive) | 0.664 µM (active) | 0.391 µM (active) | 2.37 µM (inactive) | 7.35 µM (inactive) | 
Cc1cccc(CNc2[nH]cnc3nncc2-3)c1 | > 100 µM (inactive) | > 100 µM (inactive) | 37.2 µM (inactive) | 40.5 µM (inactive) | > 100 µM (inactive) | 47.4 µM (inactive) | 43.5 µM (inactive) | 49.1 µM (inactive) | 75.7 µM (inactive) | 44.3 µM (inactive) | > 100 µM (inactive) | > 100 µM (inactive) |  | 40.4 µM (inactive) | > 100 µM (inactive) | 58.2 µM (inactive) | 64.4 µM (inactive) | > 100 µM (inactive) | 95.9 µM (inactive) | 49.5 µM (inactive)
Cn1c(=O)c2nc(COCc3nc4c(=O)n(C)c(=O)n(C)c4[nH]3)[nH]c2n(C)c1=O | > 100 µM (inactive) | > 100 µM (inactive) | > 100 µM (inactive) | > 100 µM (inactive) | > 100 µM (inactive) | > 100 µM (inactive) | > 100 µM (inactive) | > 100 µM (inactive) | > 100 µM (inactive) | > 100 µM (inactive) | > 100 µM (inactive) | > 100 µM (inactive) |  | > 100 µM (inactive) | > 100 µM (inactive) | > 100 µM (inactive) | > 100 µM (inactive) | > 100 µM (inactive) | > 100 µM (inactive) | > 100 µM (inactive)
CCOC(=O)C1(CO)CSCCSC1 | > 100 µM (inactive) |  |  | > 100 µM (inactive) | > 100 µM (inactive) | > 100 µM (inactive) | > 100 µM (inactive) | > 100 µM (inactive) | > 100 µM (inactive) |  | > 100 µM (inactive) | > 100 µM (inactive) | > 100 µM (inactive) |  | > 100 µM (inactive) | > 100 µM (inactive) | > 100 µM (inactive) | > 100 µM (inactive) | > 100 µM (inactive) | > 100 µM (inactive)
CC(=O)NC1(NC(C)=O)C2CC(C1Cc1ccccc1)C(C)(C)C2C (stereo not given) | > 100 µM (inactive) | > 100 µM (inactive) | > 100 µM (inactive) | > 100 µM (inactive) | > 100 µM (inactive) | > 100 µM (inactive) | > 100 µM (inactive) | > 100 µM (inactive) | > 100 µM (inactive) |  | > 100 µM (inactive) | > 100 µM (inactive) | > 100 µM (inactive) | > 100 µM (inactive) | > 100 µM (inactive) | > 100 µM (inactive) | > 100 µM (inactive) | > 100 µM (inactive) | > 100 µM (inactive) | > 100 µM (inactive)
Cc1cc(C)n(C(=CC(=O)C(Cl)Cl)n2nc(C)cc2C)n1 | 2.61 µM (inactive) | 2.07 µM (inactive) |  | 9.31 µM (inactive) | 2.38 µM (inactive) | 4.71 µM (inactive) | 1.61 µM (inactive) | 2.25 µM (inactive) | 6.05 µM (inactive) | 0.871 µM (active) | 10.4 µM (inactive) | 5.12 µM (inactive) |  | 3.48 µM (inactive) | 2.62 µM (inactive) | 0.151 µM (active) | 5.98 µM (inactive) | 1.85 µM (inactive) | 13.8 µM (inactive) | 0.735 µM (active)
CSc1nc(Br)nc2ncn(C3CC(Oc4ccc(C)cc4)C(COc4ccc(C)cc4)O3)c12 (stereo not given) |  | > 100 µM (inactive) | > 100 µM (inactive) | 34 µM (inactive) | > 100 µM (inactive) | 17.7 µM (inactive) | 3.72 µM (inactive) | 80.7 µM (inactive) | 28.2 µM (inactive) | > 100 µM (inactive) | > 100 µM (inactive) | > 100 µM (inactive) | > 100 µM (inactive) | > 100 µM (inactive) | > 100 µM (inactive) | > 100 µM (inactive) | > 100 µM (inactive) | > 100 µM (inactive) | > 100 µM (inactive) | > 100 µM (inactive)
CCn1c(=O)c2c3ccc(O)cc3[nH]c2c2ccc(O)cc21 | > 100 µM (inactive) |  | > 100 µM (inactive) | > 100 µM (inactive) | 64.4 µM (inactive) | > 100 µM (inactive) | 55.6 µM (inactive) | > 100 µM (inactive) | 96.4 µM (inactive) |  | > 100 µM (inactive) | 56.8 µM (inactive) | > 100 µM (inactive) | > 100 µM (inactive) | > 100 µM (inactive) | 39.1 µM (inactive) | 30.9 µM (inactive) | 55.8 µM (inactive) | > 100 µM (inactive) | > 100 µM (inactive)
Cc1cnoc1/N=C1\C=C(O)C(=O)c2ccccc21 |  | 53.2 µM (inactive) | 29.5 µM (inactive) | 29.4 µM (inactive) | 25.6 µM (inactive) | 10.8 µM (inactive) | 33.6 µM (inactive) | 25.8 µM (inactive) | 21.8 µM (inactive) | 15.4 µM (inactive) | 22.8 µM (inactive) | 1.79 µM (inactive) |  | 10.9 µM (inactive) | 4.71 µM (inactive) | 17.4 µM (inactive) | 3.46 µM (inactive) | 16.1 µM (inactive) | 35.9 µM (inactive) | 35.3 µM (inactive)
CO/N=C(/C)c1cccc(Nc2nc3ccc(Cl)cc3c3[nH]c4ccccc4c23)c1 | 1.52 µM (inactive) | 6.79 µM (inactive) |  | 3.65 µM (inactive) | 13.4 µM (inactive) | 9.46 µM (inactive) | 4.72 µM (inactive) | 8 µM (inactive) | 3.74 µM (inactive) | 3.2 µM (inactive) | 4.08 µM (inactive) | 13.6 µM (inactive) |  | 7.31 µM (inactive) | 11.5 µM (inactive) | 5.13 µM (inactive) | 3.2 µM (inactive) | 23 µM (inactive) | 5.87 µM (inactive) | 12.5 µM (inactive)
Cc1cccc2c1[nH]c1[nH]c(=O)[nH]c(=O)c12 | > 100 µM (inactive) | > 100 µM (inactive) | 83.8 µM (inactive) | > 100 µM (inactive) | > 100 µM (inactive) | > 100 µM (inactive) | > 100 µM (inactive) | > 100 µM (inactive) | > 100 µM (inactive) | > 100 µM (inactive) | > 100 µM (inactive) |  |  | > 100 µM (inactive) | > 100 µM (inactive) | > 100 µM (inactive) | > 100 µM (inactive) | > 100 µM (inactive) | > 100 µM (inactive) | > 100 µM (inactive)
COc1cc(/C=N/NC(=O)c2c(Cl)c(Cl)c(Cl)c(Cl)c2-c2nc3cc(C(=O)c4ccccc4)ccc3[nH]2)ccc1O | 21.6 µM (inactive) | 37.2 µM (inactive) | 63.8 µM (inactive) | 76.9 µM (inactive) | 26.8 µM (inactive) | 45.6 µM (inactive) | 11.5 µM (inactive) | 59.3 µM (inactive) | 60.7 µM (inactive) | 30.8 µM (inactive) | 29.9 µM (inactive) | 35.4 µM (inactive) |  | > 100 µM (inactive) | 28.4 µM (inactive) | 16.4 µM (inactive) | 20.4 µM (inactive) | 23 µM (inactive) | 24.8 µM (inactive) | 34.2 µM (inactive)
COC(=O)[C@@H]1CN(C(=O)c2ccccc2)C(=O)N1 | > 100 µM (inactive) | > 100 µM (inactive) | > 100 µM (inactive) | > 100 µM (inactive) | > 100 µM (inactive) | 69.7 µM (inactive) | > 100 µM (inactive) | > 100 µM (inactive) | > 100 µM (inactive) | > 100 µM (inactive) | > 100 µM (inactive) | > 100 µM (inactive) |  | > 100 µM (inactive) | > 100 µM (inactive) | > 100 µM (inactive) | > 100 µM (inactive) | > 100 µM (inactive) |  | > 100 µM (inactive)
O=C1CC(c2ccc(Cl)cc2)Oc2ccccc21 (stereo not given) |  | 16.3 µM (inactive) | 18.6 µM (inactive) | 24.7 µM (inactive) | 28.2 µM (inactive) | 18.1 µM (inactive) | 8.36 µM (inactive) | 37.2 µM (inactive) | 36.1 µM (inactive) | 3.96 µM (inactive) | 24.4 µM (inactive) | 31.8 µM (inactive) | 25.6 µM (inactive) |  | 15.2 µM (inactive) |  | 14 µM (inactive) | 11 µM (inactive) | 27 µM (inactive) | 4.75 µM (inactive)
